Test results as given in patent publication US20070135412A1, “Compounds for the treatment of ocular dryness caused by photorefractive surgery” (priority 2003, published 2007).

Key:
[1] = system: sensations of ocular dryness that appear after photorefractive surgery of the LASIK type; assay: Clinical study of topical carbamazepine versus placebo on ocular dryness after LASIK surgery; type: in vivo, human; conditions: ophthalmic solution at 0.01%, one drop in the operated eye twice a day for 14 days after LASIK
Protocol: A clinical study was carried out for comparing the attenuating effect produced by the topical administration of carbamazepine and of a placebo on the sensations of ocular dryness that appear after photorefractive surgery of the LASIK type. The study included 124 subjects, men and women in the age range 21-45 years, who underwent routine, elective, unilateral LASIK surgery for correction of myopia. The carbamazepine was administered in ophthalmic solution at 0.01%. After surgery, the subjects received one drop of the study medication in the operated eye, twice a day for 14 consecutive days. Postoperative examinations were carried out on days 1, 3, 7 and 14. The efficacy of the treatment was assessed by measuring the sensation of ocular dryness, pain intensity, and the overall analgesic efficacy, employing independent visual-analogy scales. The symptoms of eye inflammation, burning/stinging sensations, lacrimation etc. were also recorded.

[2] = system: fibres innervating the cornea (polymodal nociceptive fibres); assay: Extracellular recording of corneal nerve fibres in cats with a corneal wound, before and after topical drug application; type: in vivo, cat; conditions: anaesthetized cats 7 and 15 days after circular corneal wound; for responses evoked by pulses of CO2 of 30 s duration: 98% CO2 on receptor field around the lesion, before vs after topical application (same concentration ranges); for spontaneous activity of the fibres innervating the zones around the lesion: before vs after topical application (carbamazepine 0.001-0.01%, phenyloin 0.001-0.1%, mexiletine 0.001-0.1%, lidocaine 0.0005-0.01%, tocaidine 0.001-0.01%)
Protocol: Tests were carried out on fifteen adult cats of both sexes, anaesthetized with pentobarbital sodium (Nembutal, 40 mg/kg, i.p.). The cornea of both eyes was anaesthetized topically by instillation of tetracaine 0.1% and oxybuprocaine hydrochloride 0.4%.
A circular wound was made in the centre of the cornea with a 5 mm dia. trepan which penetrated 40-50 μm below the Bowman membrane. The animals were treated with topical and systemic antibiotics, leaving them to recover for 1-2 weeks.
The recording tests were carried out 7 and 15 days after surgery. The animals were anaesthetized with Nembutal (40 mg/kg, i.p.) and were maintained in a state of areflexia during the experiment by intravenous infusion of dilute Nembutal (5 mg/kg) in the saphenous vein. The animals breathed spontaneously through a tracheal cannula. Respiratory CO2, rectal temperature and arterial pressure were monitored continuously and were kept stable. The animals were sacrificed with an overdose of Nembutal at the end of the experiment.
Extracellular recording was made of nerve fibres isolated from the cornea, obtained from the ciliary nerves of the eye, using silver/silver chloride electrodes and conventional electrophysiological equipment, as described previously (cf. Belmonte, C., Gallar, J., Pozo, M. A., Rebollo, I. (1991) Excitation by irritant chemical substances of sensory afferent units in the cat's cornea. J. Physiol. 437: 709-725).
The corneal sensory fibres were identified by their response to mild stimulation with a wet brush. The mechanical threshold was measured with a Cochet-Bonnet aesthesiometer with a No. 12 filament (0.1-1.9 mN) and with calibrated von Frey hairs (0.002-2.0 N). The receptor fields were mapped with a suprathreshold force hair. Sensitivity to chemical stimuli was investigated by applying a pulse of gas containing 98% CO2 at a flow rate of 80 ml/min on the receptor field for 30 s.
The conduction velocity was measured by observing the latency to electric shocks (0.1-0.5 ms, 0.5-3.0 mA) applied on the receptor field with a pair of silver electrodes 3-5 mm apart. The conduction distance was estimated with a silk thread of 0.8 G positioned on the path of the nerve.
The nerve discharges and the stimulation pulses were recorded on an FM magnetic tape recorder for off-line computer analysis with suitable software (CED 1401plus and Spike2 for Windows). The spontaneous activity (average discharge frequency in pulses per second) and the changes in discharge caused by the various stimuli were measured.
The fibres were classified as peripheral and central according to the localization of their receptor field. […] Depending on the localization of the receptor field the fibres were classified as far from the wound or close to or bordering on the wound. The control data were obtained from intact corneas.
The response of the polymodal nociceptive fibres to chemical stimulation was investigated in the fibres whose receptor field touched the damaged area and in those whose receptor field was outside of and far from the lesion. The spontaneous activity and the discharge of the fibres in response to stimulation with CO2 were measured before and after topical application of carbamazepine (0.001-0.01%), phenyloin (5,5-diphenylhydantoin) (0.001-0.1%), mexiletine (0.001-0.1%), lidocaine (0.0005-0.01%) and tocaidine (0.001-0.01%).

SMILES | incidence of symptoms of dryness throughout the day [1] | incidence of the symptoms of ocular dryness ([1]; statistically significant) | responses evoked by pulses of CO2 of 30 s duration [2] | spontaneous activity of the fibres innervating the zones around the lesion [2]
NC(=O)N1c2ccccc2C=Cc2ccccc21 [carbamazepine] | significantly lower | more reduced incidence | dose-dependent decrease | dose-dependent decrease
O=C1NC(=O)C(c2ccccc2)(c2ccccc2)N1 [phenyloin, 5,5-diphenylhydantoin] |  |  | dose-dependent decrease | dose-dependent decrease
CCN(CC)CC(=O)Nc1c(C)cccc1C [lidocaine] |  |  | dose-dependent decrease | dose-dependent decrease
Cc1cccc(C)c1NC(=O)C(C)N (stereo not drawn) [tocaidine] |  |  | dose-dependent decrease | dose-dependent decrease
Cc1cccc(C)c1OCC(C)N (stereo not drawn) [mexiletine] |  |  | dose-dependent decrease | dose-dependent decrease
